In patent US7332495B2 (priority 2002, dated 2008):
Like-named read-outs stand apart in the source and are kept apart here.

What was measured:
rat [1] = assay: animal or person; conditions: for responders at 20 mg/kg: ip; for Increase (hot plate) (%): 20 mg/kg, Table 5 summary
Procedure: Using 55° C. hot plate pain threshold detector (available from Ninghai Baishi Electronic Medical Instrument Co., Zheijiang, China) the threshold change before and after administration of a pharmaceutical composition of the present invention is tested. […] hind paw was scrubbed with alcohol cotton ball before the experiment. The regular pain threshold was tested twice for each rat, the induced hind paw licking time being recorded as the pain threshold. Measurements were made at 20-30 minute intervals. Only rats with stable pain reaction were used in the pharmaceutical test.
(§1) Two species of animals (mice and rats) and four types of pain testing models (i.p. 0.7% acetic acid, s.c. 5% formalin, hot plate 55° C., focused radiant heat) were used.

Kunming mice [2] = assay: Mice writhing model (acetic acid); assay type: in vivo; conditions: for inhibition in vivo at 20 mg/kg: ip, i.p. 20 mg/Kg, acetic acid 0.7% i.p. after 30 minutes, writhes in 5 minutes, read-out: Analgesia (inhibition ratio of writhing); for Writhing (K i): 20 mg/kg, Table 5 summary
Procedure: (§2) Kunming mice were used, with a male-female ratio of 50-50%. The test compound is administered i.p. (20 mg/Kg body weight) to the test groups, and physiological saline is administered P.O. (20 ml/Kg body weight) to the control group. After 30 minutes, acetic acid (0.7%, […] i.p.) was injected and the number of writhes was observed during a 5-minute period after acetic acid administration. The inhibition ratio of the writhing threshold was calculated. The alternating current tube is used to record the spontaneous activities for measuring sedation.
as §1

rat [3] = assay: Rat tail flick model (focused radiant heat); assay type: in vivo; conditions: for change in vivo at 20 mg/kg: Rattus norvegicus, po, read-out: increase (%) of tail flick time; for change in vivo at 20 mg/kg / After (s) tail flick time: orally 20 mg/kg; for After (s) tail flick time: 30-45 minutes after administration; for Increase (tail flick) (%): 20 mg/kg, Table 5 summary
Procedure: A 8.75 mm-projecting lamp (12 v, 50 w) was used to give out focused radiant heat. The terminal 3 cm of the tail is exposed to the heat. The intensity of the focused radiant heat is regulated by a transformer to ensure that the time required to elicit a tail flick response is within 3-5 seconds. The rat's pain threshold is pre-tested for 2-3 times; and only animals with stable reactions were used in the pharmaceutical test. The test substance is taken orally 20 mg/kg. The number of rats whose increase in time for eliciting a tail flick response is by 100% or more at the peak of the drug action (30-45 minutes after administration) is used to calculate analgesic effect.
as §1

Kunming mice [4] = assay: Sedation: spontaneous activities recorded with alternating current tube; assay type: in vivo; conditions: for inhibition in vivo at 20 mg/kg: Mus musculus, ip, i.p. 20 mg/Kg, spontaneous activities; for Sedation (writhing model): 20 mg/kg, Table 5 summary
Procedure: as §2, with “The test compound is administered i.p. (20 mg/Kg body weight) to the test groups, and physiological saline is administered P.O. (20 ml/Kg body weight) to the control group.” left out

[5] = Summary of all three algogenic models; assay type: in vivo; conditions: in words
From the text: All the compounds mentioned above have profound for further value development.

rat [6] = assay: Rat tail flick model (focused radiant heat); assay type: in vivo; conditions: po, read-out: Analgesia ED50
[7] = Rattus norvegicus, read-out: Analgesic ratio (Increase by 100%)
[8] = Rattus norvegicus, read-out: Analgesic ratio (More than 60 seconds)

SMILES	responders at 20 mg/kg (rat [1]; [7]) [%]	responders at 20 mg/kg (rat [1]; [8]) [%]	inhibition in vivo at 20 mg/kg (Kunming mice [2]; Mus musculus) [%]	change in vivo at 20 mg/kg (rat [3]) [%]	After (s) tail flick time (rat [3]) [s]	inhibition in vivo at 20 mg/kg (Kunming mice [4]) [%]	Analgesic effect on all three algogenic models [5]	Sedative effect on all three algogenic models [5]	Increase (hot plate) (%) (rat [1])	Writhing (K i) (Kunming mice [2])	Increase (tail flick) (%) (rat [3])	Sedation (writhing model) (Kunming mice [4])	ED50 (rat [6]) [mg/kg]	ED50 (rat [1]; Rattus norvegicus, po, read-out: Analgesia ED50) [mg/kg]	ED50 (Kunming mice [2]; Mus musculus, po, Mice, Acetic acid Writhing, read-out: Analgesia ED50) [mg/kg]	Excitement (rat [1]; i.p. 20 mg/Kg)	Sedation (rat [1]; i.p. 20 mg/Kg, grade symbols, key not given)
COc1ccc(CN2CCN(CC(=O)c3ccccc3)CC2)cc1 [IV-10, N^1-(4-methoxybenzyl)-N^4-phenacyl piperazine]	90	70	100	9.4	8.81	99	–	–	–	–	–	–	–	–	–	–	–
Cc1ccc(C(=O)CN2CCN(C(C)c3ccccc3)CC2)cc1 (stereo not shown) [IV-40, N^1-(1-phenylethyl)-N^4-(4-methylphenacyl)piperazine]	10	10	–	8	7.88	–	–	–	–	–	–	–	–	–	–	–	–
O=C(CN1CCN(CCc2ccccc2)CC1)c1ccccc1 [IV-14, N^1-phenethyl-N^4-phenacyl piperazine]	100	70	94	37.9	10.62	92	powerful analgesic effects	rather significant sedative effect	100	94	37.9	92	–	–	–	–	–
COc1cccc(CN2CCN(CC(=O)c3ccccc3)CC2)c1 [IV-25, N^1-(3-methoxybenzyl)-N^4-phenacyl piperazine]	40	10	100	12	8.37	88	–	–	–	–	–	–	–	–	–	–	–
CC(c1ccccc1)N1CCN(CC(=O)c2ccccc2)CC1 (stereo not shown) [IV-37, N^1-(1-phenylethyl)-N^4-phenacyl piperazine]	100	100	100	25	10.54	90.1	–	–	–	–	–	–	–	–	–	–	–
CC(=O)Nc1ccc(O)cc1 [Paracetamol, reference compound]	–	–	–	–	–	–	–	–	–	–	–	–	> 5000	4320	132	–	–
O=C(CN1CCN(Cc2ccc3c(c2)OCO3)CC1)c1ccccc1 [IV-19, N^1-(3,4-methylenedioxybenzyl)-N^4-phenacyl piperazine]	70	50	97	6.7	8.58	93	–	–	–	–	–	–	–	–	–	–	–
Cc1ccc(C(=O)CN2CCN(C(C)c3ccc([N+](=O)[O-])cc3)CC2)cc1 (stereo not shown) [IV-27, N^1-[1-(4-nitrophenyl)ethyl]-N^4-(4-methylphenacyl)piperazine]	20	0	57	9.2	9.37	74	–	–	–	–	–	–	–	–	–	no	no
CC(=O)Nc1ccc(CN2CCN(CC(=O)c3ccccc3)CC2)cc1 [IV-21, N^1-(4-acetamidobenzyl)-N^4-phenacyl piperazine]	100	50	100	28	9.72	92	–	–	100	100	28	92	–	–	–	–	–
